Data published in ChEMBL document CHEMBL1201861, “Genomics of Drug Sensitity in Cancer screening data, Wellcome Trust Sanger Institute”.
pIC50: −log10 of the molar value.

Tests used:
GCIY = assay: cells; type: functional, cell-based, Homo sapiens; conditions: Homo sapiens, GCIY;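 further: growth inhibition of the human GCIY cell line, read out by a cell viability assay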
Description: SANGER: Inhibition of human GCIY cell growth in a cell viability assay.

CFPAC-1 = assay: cells; type: functional, cell-based; conditions: Homo sapiens;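 further: cell viability readout used to gauge suppression of CFPAC-1 cell proliferation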
Description: SANGER: Inhibition of human CFPAC-1 cell growth in a cell viability assay.

EC-GI-10 = assay: cells; type: functional, cell-based, Homo sapiens; conditions: Homo sapiens, EC-GI-10
Description: SANGER: Inhibition of human EC-GI-10 cell growth in a cell viability assay.

NBsusSR = assay: cells; type: functional, cell-based; conditions: Homo sapiens;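 further: growth inhibition of the human cell line, read out with a cell viability assay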
Description: SANGER: Inhibition of human NBsusSR cell growth in a cell viability assay.

SNU-387 = assay: cells; type: functional, cell-based, Homo sapiens; conditions: Homo sapiens, SNU-387
Description: SANGER: Inhibition of human SNU-387 cell growth in a cell viability assay.

EFO-21 = assay: cells; type: functional, cell-based, Homo sapiens; conditions: Homo sapiens, EFO-21;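 further: growth inhibition of EFO-21 cells measured with a viability assay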
Description: SANGER: Inhibition of human EFO-21 cell growth in a cell viability assay.

COLO-668 = assay: cells; type: functional, cell-based, Homo sapiens; conditions: Homo sapiens, COLO-668
Description: SANGER: Inhibition of human COLO-668 cell growth in a cell viability assay.

NCI-H1573 = assay: cells; type: functional, cell-based; conditions: Homo sapiens;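 further: growth inhibition of NCI-H1573 cells, read out with a cell viability assay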
Description: SANGER: Inhibition of human NCI-H1573 cell growth in a cell viability assay.

ECC10 = assay: cells; type: functional, cell-based; conditions: Homo sapiens;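 further: growth inhibition of ECC10 cells, read out by a cell viability assay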
Description: SANGER: Inhibition of human ECC10 cell growth in a cell viability assay.

NCI-H2342 = assay: cells; type: functional, cell-based; conditions: Homo sapiens;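 further: growth inhibition of the cancer cell line, determined with a cell viability assay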
Description: SANGER: Inhibition of human NCI-H2342 cell growth in a cell viability assay.

NCI-H1666 = assay: cells; type: functional, cell-based; conditions: Homo sapiens;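 further: growth inhibition of the cell line, read out with a cell viability assay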
Description: SANGER: Inhibition of human NCI-H1666 cell growth in a cell viability assay.

HSC-3 = assay: cells; type: functional, cell-based, Homo sapiens; conditions: Homo sapiens, HSC-3
Description: SANGER: Inhibition of human HSC-3 cell growth in a cell viability assay.

ABC-1 = assay: cells; type: functional, cell-based, Homo sapiens; conditions: Homo sapiens, ABC-1;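 further: growth inhibition of human ABC-1 cells, read out by a cell viability assay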
Description: SANGER: Inhibition of human ABC-1 cell growth in a cell viability assay.

D-263MG = assay: cells; type: functional, cell-based, Homo sapiens; conditions: Homo sapiens, D-263MG
Description: SANGER: Inhibition of human D-263MG cell growth in a cell viability assay.

EPLC-272H = assay: cells; type: functional, cell-based; conditions: Homo sapiens
Description: SANGER: Inhibition of human EPLC-272H cell growth in a cell viability assay.

SBC-5 = assay: cells; type: functional, cell-based, Homo sapiens; conditions: Homo sapiens, SBC-5;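 further: cell viability assay read-out, IC50 is the concentration that inhibits growth of the cells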
Description: SANGER: Inhibition of human SBC-5 cell growth in a cell viability assay.

23132-87 = assay: cells; type: functional, cell-based, Homo sapiens; conditions: Homo sapiens
Description: SANGER: Inhibition of human 23132-87 cell growth in a cell viability assay.

IGR-1 = assay: cells; type: functional, cell-based, Homo sapiens; conditions: Homo sapiens, IGR-1;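 further: growth inhibition of human IGR-1 cells, read out with a cell viability assay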
Description: SANGER: Inhibition of human IGR-1 cell growth in a cell viability assay.

EM-2 = assay: cells; type: functional, cell-based; conditions: Homo sapiens;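 further: growth inhibition of EM-2 cells, read out with a cell viability assay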
Description: SANGER: Inhibition of human EM-2 cell growth in a cell viability assay.

RPMI-2650 = assay: cells; type: functional, cell-based, Homo sapiens; conditions: Homo sapiens, RPMI-2650
Description: SANGER: Inhibition of human RPMI-2650 cell growth in a cell viability assay.

FaDu = assay: cells; type: functional, cell-based, Homo sapiens; conditions: Homo sapiens, FaDu;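 further: cell viability readout of growth inhibition in FaDu cells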
Description: SANGER: Inhibition of human FADU cell growth in a cell viability assay.

SCC-4 = assay: cells; type: functional, cell-based, Homo sapiens; conditions: Homo sapiens, SCC-4;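 further: growth inhibition of human SCC-4 cells, read out as cell viability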
Description: SANGER: Inhibition of human SCC-4 cell growth in a cell viability assay.

8-MG-BA = assay: cells; type: functional, cell-based, Homo sapiens; conditions: Homo sapiens, 8-MG-BA;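 further: growth inhibition of 8-MG-BA cells, read out with a cell viability assay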
Description: SANGER: Inhibition of human 8-MG-BA cell growth in a cell viability assay.

KNS-62 = assay: cells; type: functional, cell-based; conditions: Homo sapiens;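 further: inhibition of cell growth, read out with a cell viability assay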
Description: SANGER: Inhibition of human KNS-62 cell growth in a cell viability assay.

L-428 = assay: cells; type: functional, cell-based; conditions: Homo sapiens
Description: SANGER: Inhibition of human L-428 cell growth in a cell viability assay.

TGBC11TKB = assay: cells; type: functional, cell-based; conditions: Homo sapiens;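 further: growth inhibition of human TGBC11TKB cells, measured by a cell viability assay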
Description: SANGER: Inhibition of human TGBC11TKB cell growth in a cell viability assay.

SW872 = assay: cells; type: functional, cell-based, Homo sapiens; conditions: Homo sapiens, SW872;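 further: growth inhibition of SW872 cells, read out by a viability assay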
Description: SANGER: Inhibition of human SW872 cell growth in a cell viability assay.

COLO-684 = assay: cells; type: functional, cell-based; conditions: Homo sapiens
Description: SANGER: Inhibition of human COLO-684 cell growth in a cell viability assay.

H-EMC-SS = assay: cells; type: functional, cell-based; conditions: Homo sapiens
Description: SANGER: Inhibition of human H-EMC-SS cell growth in a cell viability assay.

EB2 = assay: cells; type: functional, cell-based; conditions: Homo sapiens;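 further: growth inhibition of EB2 cells, read out with a cell viability assay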
Description: SANGER: Inhibition of human EB2 cell growth in a cell viability assay.

PF-382 = assay: cells; type: functional, cell-based; conditions: Homo sapiens
Description: SANGER: Inhibition of human PF-382 cell growth in a cell viability assay.

NCI-H522 = assay: cells; type: functional, cell-based, Homo sapiens; conditions: Homo sapiens, NCI-H522;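 further: cell viability assay measuring growth inhibition of human NCI-H522 cells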
Description: SANGER: Inhibition of human NCI-H522 cell growth in a cell viability assay.

BOKU = assay: cells; type: functional, cell-based; conditions: Homo sapiens;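 further: growth inhibition of the human BOKU cell line, read out by a cell viability assay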
Description: SANGER: Inhibition of human BOKU cell growth in a cell viability assay.

NCI-H187 = assay: cells; type: functional, cell-based; conditions: Homo sapiens;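 further: growth inhibition of NCI-H187 cells, read out as cell viability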
Description: SANGER: Inhibition of human NCI-H187 cell growth in a cell viability assay.

IMR-5 = assay: cells; type: functional, cell-based; conditions: Homo sapiens;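 further: growth inhibition of human IMR-5 cells, read out with a cell viability assay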
Description: SANGER: Inhibition of human IMR-5 cell growth in a cell viability assay.

HCC1187 = assay: cells; type: functional, cell-based, Homo sapiens; conditions: Homo sapiens, HCC1187;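 further: growth inhibition of HCC1187 cells, read out with a cell viability assay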
Description: SANGER: Inhibition of human HCC1187 cell growth in a cell viability assay.

LB996-RCC = assay: cells; type: functional, cell-based; conditions: Homo sapiens
Description: SANGER: Inhibition of human LB996-RCC cell growth in a cell viability assay.

SU-DHL-1 = assay: SANGER: Inhibition of human SU-DHL-1 cell growth in a cell viability assay.; type: functional, cell-based
LP-1 = assay: cells; type: functional, cell-based; conditions: Homo sapiens;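 further: growth inhibition of human LP-1 cells, with the read-out taken from a cell viability assay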
Description: SANGER: Inhibition of human LP-1 cell growth in a cell viability assay.

RL95-2 = assay: cells; type: functional, cell-based; conditions: Homo sapiens;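 further: RL95-2 growth inhibition determined through a cell viability readout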
Description: SANGER: Inhibition of human RL95-2 cell growth in a cell viability assay.

NCI-H1882 = assay: cells; type: functional, cell-based; conditions: Homo sapiens;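 further: growth inhibition of the cell line, determined with a viability assay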
Description: SANGER: Inhibition of human NCI-H1882 cell growth in a cell viability assay.

IST-SL2 = assay: cells; type: functional, cell-based; conditions: Homo sapiens;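 further: growth inhibition of human IST-SL2 cells, read out by a cell viability assay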
Description: SANGER: Inhibition of human IST-SL2 cell growth in a cell viability assay.

HCC1599 = assay: cells; type: functional, cell-based; conditions: Homo sapiens;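 further: growth inhibition of HCC1599 cells, read out in a cell viability assay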
Description: SANGER: Inhibition of human HCC1599 cell growth in a cell viability assay.

SIG-M5 = assay: cells; type: functional, cell-based; conditions: Homo sapiens;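 further: cell viability assay read-out, measuring how strongly growth of cultured human SIG-M5 cells is inhibited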
Description: SANGER: Inhibition of human SIG-M5 cell growth in a cell viability assay.

Raji = assay: cells; type: functional, cell-based; conditions: Homo sapiens;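 further: cell viability assay measuring inhibition of Raji cell growth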
Description: SANGER: Inhibition of human Raji cell growth in a cell viability assay.

RL = assay: cells; type: functional, cell-based; conditions: Homo sapiens
Description: SANGER: Inhibition of human RL cell growth in a cell viability assay.

SNU-16 = assay: cells; type: functional, cell-based; conditions: Homo sapiens;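 further: growth inhibition of human SNU-16 cells, determined with a cell viability readout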
Description: SANGER: Inhibition of human NCI-SNU-16 cell growth in a cell viability assay.

WSU-NHL = assay: cells; type: functional, cell-based; conditions: Homo sapiens;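 further: growth inhibition of human WSU-NHL cells, read out with a cell viability assay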
Description: SANGER: Inhibition of human WSU-NHL cell growth in a cell viability assay.

CMK = assay: cells; type: functional, cell-based; conditions: Homo sapiens;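 further: growth inhibition of CMK cells, read out as cell viability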
Description: SANGER: Inhibition of human CMK cell growth in a cell viability assay.

MDA-MB-134-VI = assay: cells; type: functional, cell-based; conditions: Homo sapiens
Description: SANGER: Inhibition of human MDA-MB-134-VI cell growth in a cell viability assay.

NCI-H1963 = assay: cells; type: functional, cell-based; conditions: Homo sapiens;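 further: cell growth inhibition of the human line, determined with a cell viability assay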
Description: SANGER: Inhibition of human NCI-H1963 cell growth in a cell viability assay.

KARPAS-422 = assay: cells; type: functional, cell-based; conditions: Homo sapiens
Description: SANGER: Inhibition of human KARPAS-422 cell growth in a cell viability assay.

LC4-1 = assay: cells; type: functional, cell-based; conditions: Homo sapiens;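 further: growth inhibition of LC4-1 cells, read out with a cell viability assay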
Description: SANGER: Inhibition of human LC4-1 cell growth in a cell viability assay.

NCI-H716 = assay: cells; type: functional, cell-based; conditions: Homo sapiens;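 further: growth inhibition of human NCI-H716 cells, measured by a cell viability assay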
Description: SANGER: Inhibition of human NCI-H716 cell growth in a cell viability assay.

ECC4 = assay: cells; type: functional, cell-based; conditions: Homo sapiens;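 further: growth inhibition of ECC4 cells, read out with a cell viability assay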
Description: SANGER: Inhibition of human ECC4 cell growth in a cell viability assay.

UACC-812 = assay: cells; type: functional, cell-based; conditions: Homo sapiens
Description: SANGER: Inhibition of human UACC-812 cell growth in a cell viability assay.

RPMI-6666 = assay: cells; type: functional, cell-based; conditions: Homo sapiens
Description: SANGER: Inhibition of human RPMI-6666 cell growth in a cell viability assay.

YT = assay: cells; type: functional, cell-based; conditions: Homo sapiens
Description: SANGER: Inhibition of human YT cell growth in a cell viability assay.

EHEB = assay: cells; type: functional, cell-based; conditions: Homo sapiens;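 further: growth inhibition of human EHEB cells, read out with a cell viability assay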
Description: SANGER: Inhibition of human EHEB cell growth in a cell viability assay.

`CC(=O)O[C@@]12CO[C@@H]1C[C@H](O)[C@@]1(C)C(=O)[C@H](O)C3=C(C)[C@@H](OC(=O)[C@H](O)[C@@H](NC(=O)OC(C)(C)C)c4ccccc4)C[C@@](O)([C@@H](OC(=O)c4ccccc4)[C@H]21)C3(C)C` [DOCETAXEL] was tested, and the pIC50 (GCIY) was < 8.00, the pIC50 (CFPAC-1) was < 8.00 and the pIC50 (EC-GI-10) was 9.23. For the same compound, the pIC50 (NBsusSR) was 8.96, the pIC50 (SNU-387) was 8.58 and the pIC50 (EFO-21) was < 8.00. For the same compound, the pIC50 (COLO-668) was < 8.00, the pIC50 (NCI-H1573) was 8.22 and the pIC50 (ECC10) was 8.34. For the same compound, the pIC50 (NCI-H2342) was < 8.00, the pIC50 (NCI-H1666) was 8.30 and the pIC50 (HSC-3) was 9.88. The pIC50 (ABC-1) was < 8.00, the pIC50 (D-263MG) was 9.02 and the pIC50 (EPLC-272H) was 8.96. It also gave a pIC50 (SBC-5) of 8.73, a pIC50 (23132-87) of 8.81 and a pIC50 (IGR-1) of 8.19. For the same compound, the pIC50 (EM-2) was 8.21, the pIC50 (RPMI-2650) was 8.61 and the pIC50 (FaDu) was 8.29. It also gave a pIC50 (SCC-4) of 9.13, a pIC50 (8-MG-BA) of 9.23 and a pIC50 (KNS-62) of 8.95. The pIC50 (L-428) was < 8.00, the pIC50 (TGBC11TKB) was 8.33 and the pIC50 (SW872) was < 8.00. The pIC50 (COLO-684) was < 8.00 and the pIC50 (H-EMC-SS) was < 8.00.

`O=C(c1cc(Cc2n[nH]c(=O)c3ccccc23)ccc1F)N1CCN(C(=O)C2CC2)CC1` [OLAPARIB] was tested, and the pIC50 (GCIY) was < 5.30, the pIC50 (CFPAC-1) was < 5.30 and the pIC50 (EC-GI-10) was < 5.30. For the same compound, the pIC50 (NBsusSR) was < 5.30, the pIC50 (SNU-387) was < 5.30 and the pIC50 (EFO-21) was < 5.30. The pIC50 (COLO-668) was < 5.30, the pIC50 (NCI-H1573) was < 5.30 and the pIC50 (ECC10) was < 5.30. For the same compound, the pIC50 (NCI-H2342) was < 5.30, the pIC50 (NCI-H1666) was < 5.30 and the pIC50 (HSC-3) was < 5.30. For the same compound, the pIC50 (ABC-1) was < 5.30, the pIC50 (D-263MG) was < 5.30 and the pIC50 (EPLC-272H) was < 5.30. For the same compound, the pIC50 (SBC-5) was < 5.30, the pIC50 (IGR-1) was < 5.30 and the pIC50 (EM-2) was < 5.30. The pIC50 (RPMI-2650) was < 5.30, the pIC50 (FaDu) was < 5.30 and the pIC50 (SCC-4) was < 5.30. The pIC50 (8-MG-BA) was < 5.30, the pIC50 (KNS-62) was < 5.30 and the pIC50 (L-428) was < 5.30. For the same compound, the pIC50 (TGBC11TKB) was < 5.30, the pIC50 (SW872) was < 5.30 and the pIC50 (COLO-684) was 5.45. The pIC50 (H-EMC-SS) was < 5.30.

With `CCC1=C[C@@H]2CN(C1)Cc1c([nH]c3ccccc13)[C@@](C(=O)OC)(c1cc3c(cc1OC)N(C)[C@H]1[C@@](O)(C(=O)OC)[C@H](OC(C)=O)[C@]4(CC)C=CCN5CC[C@]31[C@@H]54)C2` [VINORELBINE] the pIC50 (GCIY) was 7.24, the pIC50 (EB2) was 8.17 and the pIC50 (EC-GI-10) was < 7.19. For the same compound, the pIC50 (PF-382) was 7.93, the pIC50 (SNU-387) was 7.99 and the pIC50 (EFO-21) was 7.66. For the same compound, the pIC50 (NCI-H522) was 9.27, the pIC50 (COLO-668) was 7.55 and the pIC50 (BOKU) was < 7.19. For the same compound, the pIC50 (NCI-H187) was 7.85, the pIC50 (IMR-5) was 7.95 and the pIC50 (HCC1187) was 7.86. The pIC50 (LB996-RCC) was < 7.19, the pIC50 (SU-DHL-1) was 8.02 and the pIC50 (NCI-H2342) was 8.32. The pIC50 (HSC-3) was 8.25, the pIC50 (ABC-1) was 8.52 and the pIC50 (LP-1) was < 7.19. The pIC50 (RL95-2) was 8.15, the pIC50 (NCI-H1882) was 7.44 and the pIC50 (IST-SL2) was 7.77. The pIC50 (D-263MG) was < 7.19, the pIC50 (SBC-5) was 8.68 and the pIC50 (HCC1599) was 7.98. The pIC50 (23132-87) was 8.16, the pIC50 (SIG-M5) was 8.61 and the pIC50 (Raji) was < 7.19. For the same compound, the pIC50 (RL) was < 7.19, the pIC50 (SNU-16) was 7.41 and the pIC50 (IGR-1) was 8.72. For the same compound, the pIC50 (WSU-NHL) was 7.47, the pIC50 (CMK) was 7.86 and the pIC50 (MDA-MB-134-VI) was < 7.19. For the same compound, the pIC50 (NCI-H1963) was 7.52, the pIC50 (KARPAS-422) was 7.63 and the pIC50 (EM-2) was 7.35. For the same compound, the pIC50 (RPMI-2650) was 8.00, the pIC50 (LC4-1) was 8.14 and the pIC50 (FaDu) was 7.31. The pIC50 (SCC-4) was 8.59, the pIC50 (8-MG-BA) was 8.47 and the pIC50 (NCI-H716) was < 7.19. The pIC50 (L-428) was < 7.19, the pIC50 (ECC4) was < 7.19 and the pIC50 (UACC-812) was < 7.19. The pIC50 (SW872) was 8.25, the pIC50 (RPMI-6666) was 8.16 and the pIC50 (YT) was < 7.19. The pIC50 (COLO-684) was 7.86 and the pIC50 (EHEB) was < 7.19.
